Laboratory results: PubChem BioAssay AID1159564 (GlaxoSmithKline (GSK), 2015)
The source made the active and inactive calls. The rule behind the calls is not given here.

Test system: L. donovani-infected THP-1 macrophages, intracellular amastigote imaging
Assay: intracellular L. donovani amastigote inhibition, imaging, THP-1 host macrophages, host toxicity (AID 1159564)
[1] = measured here: THP-1 host cell toxicity
[2] = measured here: amastigotes per macrophage

SMILES | IC50 | IC50 [1] [µM] | IC50 [2] [µM]
Cc1ccc(CNC2CCN(C[C@@H]3Cn4c(=O)ccc5ccc(=O)n3c54)CC2)cc1F | > 50 µM (inactive) | > 50 | > 50
CNS(=O)(=O)c1ccccc1Nc1nc(Nc2ccnn2C)ncc1Cl | 0.63 µM | 0.32 | 0.4
COc1ccc(NC(=O)c2ccc(NC(=O)CN(c3ccccc3C)S(C)(=O)=O)cc2)cc1 | > 50 µM (inactive) | > 50 | 7.9
COc1ccc(-c2cc(C)no2)cc1S(=O)(=O)Nc1ccc(F)c(Cl)c1 | 25 µM | 32 | 20
Cc1occc1C(=O)Nc1ccccc1C(=O)Nc1nccs1 | > 50 µM (inactive) | > 50 | > 50
Cc1ccc(Nc2nc(C3CCCN3Cc3ccn[nH]3)cs2)nc1 (configuration not stated) | 1.6 µM | 25 | 1.3
COc1ccc(S(=O)(=O)Nc2ccc(CN3CCN(C(=O)c4cccc(C#N)c4)CC3)cc2)cc1 | > 50 µM (inactive) | > 50 | > 50
c1cncc(CN(Cc2ccco2)Cc2cn[nH]c2-c2cccs2)c1 | > 50 µM (inactive) | 20 | 1.3
CN(Cc1ccc(F)cc1)c1ccc(OCC(=O)N2CCCCC2c2cccnc2)nn1 (configuration not stated) | > 50 µM (inactive) | 32 | > 50
CC(C)(C)C(=O)NCCc1csc(-c2ccc(F)cc2)n1 | > 50 µM (inactive) | > 50 | > 50
CS(=O)(=O)c1ccc(CC(=O)Nc2nc(-c3ccc(Cl)s3)cs2)cc1 | > 50 µM (inactive) | 16 | > 50
C[C@@H](Oc1cc(-n2cnc3ccc(O[C@H]4CCNC4)cc32)sc1C(N)=O)c1ccccc1Cl | 7.9 µM | 6.3 | 5
CN(C)S(=O)(=O)c1ccc(Cl)c(C(=O)Nc2nc(-c3ccccn3)cs2)c1 | 10 µM | 6.3 | 5
COc1ccc(-c2csc(NC(=O)c3ccc([N+](=O)[O-])s3)n2)cc1 | 4 µM | > 50 | 1.6
CC(C)(C)C(O)(CCc1ccc(Cl)cc1)Cn1cncn1 (configuration not stated) | > 50 µM (inactive) | > 50 | > 50
O=C(Nc1ccc(S(=O)(=O)N2CCCC2)cc1)c1ccc([N+](=O)[O-])s1 | 1.6 µM | > 50 | 1
Cc1nn2c(NCCCO)c3c(nc2c1-c1cccs1)CCC3 | > 50 µM (inactive) | > 50 | > 50
Cc1c(C#N)c([N+](=O)[O-])nn1Cc1cccc(Cl)c1Cl | > 50 µM (inactive) | 16 | 16
CC(c1ccc2c(c1)CCCC2)N(C)c1ncc2c(N)nc(N)nc2n1 (configuration not stated) | 2 µM | 25 | 0.79
O=C(Nc1nc(-c2ccccn2)cs1)C1CCc2ccccc2C1 (configuration not stated) | 0.63 µM | 7.9 | 0.4
Cc1cc2ncn(-c3ccc([N+](=O)[O-])cc3C#N)c2cc1C | > 50 µM (inactive) | > 50 | > 50
O=C(Nc1nc(-c2ccccn2)cs1)c1ccccc1-n1cnnn1 | 6.3 µM | 5 | 4
CCOc1ccc(NC(=O)C=Cc2ccc(CC)o2)cc1 | 50 µM | 20 | 25

SMILES | IC50 | IC50 [1] [µM] | IC50 [2] [µM]
CN(C)Cc1ccc(-c2ccc(S(=O)(=O)NCC3CCCO3)c(F)c2)cc1 (configuration not stated) | > 63 µM (inactive) | 63 | > 63
COc1ccc(C(=O)Nc2ccc(NC(=O)CO)cc2)cc1 | > 50 µM (inactive) | 20 | > 50
COc1ccc(C(=O)[C@H]2C[C@@H]2CN(Cc2ccccn2)Cc2ccccn2)cc1 | 1.6 µM | > 50 | 1.3
CNC(=O)Oc1ccc(C(=O)NCc2ccccc2)cc1OC(=O)NC | > 50 µM (inactive) | > 50 | > 50
COc1ccc(Oc2ccc(C(C)N(C)c3ncc4c(N)nc(N)nc4n3)cc2)cc1 (configuration not stated) | 0.1 µM | 16 | 0.05
COc1ccc(C2CC(c3ccccc3Cl)=NN2C(=O)CNC(=O)C2CCCC2)cc1 (configuration not stated) | > 50 µM (inactive) | > 50 | > 50
Oc1cccnc1-c1n[nH]c(Cc2ccccc2)n1 | 3.2 µM | 16 | 2
CC(CCc1ccccc1)NC(=O)CN(Cc1ccccn1)Cc1ccccn1 (configuration not stated) | 3.2 µM | 20 | 3.2
CN1C(=O)c2ccccc2Sc2ccc(NC(=O)NCc3ccco3)cc21 | > 50 µM (inactive) | > 50 | 25
CCc1ccc2nc(NC(=O)c3cc(N4CCOCC4)ccn3)sc2c1 | 1.3 µM | 10 | 0.79
CCN(C)Cc1ccc(N2CCC(NS(=O)(=O)c3ccc4c(c3)CCO4)CC2)nc1 | > 50 µM (inactive) | > 50 | 
COc1ccc2c(Cl)c(C(=O)N3CCC3)sc2c1Cl | > 50 µM (inactive) | > 50 | > 50
Cc1cccc(NS(=O)(=O)c2ccc3c(c2)C(=O)c2cc(S(=O)(=O)Nc4cccc(C)c4C)ccc2-3)c1C | > 50 µM (inactive) | > 50 | > 50
Cn1ccnc1CN1CCc2[nH]cnc2C1c1ccccc1OCc1ccccc1 (configuration not stated) | > 50 µM (inactive) | > 50 | > 50
CCOc1ccc(N(C)S(=O)(=O)c2ccc3[nH]cc(C(=O)NC4CCCC4)c(=O)c3c2)cc1 | 32 µM | 25 | 32
CC(C)(C)c1csc(NC(=O)c2ccc([N+](=O)[O-])s2)n1 | 3.2 µM | > 50 | 2.5
Cc1cnc(Nc2cc(Cc3ccccc3)nc(NC3CCC(O)CC3)n2)s1 (configuration not stated) | 0.04 µM | 0.025 | 0.032
O=C1OCc2ccc(Nc3nccc(-c4cnn5ncccc45)n3)cc21 | 0.016 µM | 0.0079 | 0.013
CNc1cc(Cn2c(C(=O)c3cc(C)cc(Cl)c3)c(C(C)C)c(=O)[nH]c2=O)ccn1 | 20 µM | > 50 | 13
CC(C)(C)c1cc(NC2CC2)nc(-c2ccccn2)n1 | 2.5 µM | 25 | 1.6
CCc1cccc(CC)c1-n1c(SCC(=O)NC(=O)NCc2ccco2)nnc1-c1cccnc1 | > 50 µM (inactive) | > 50 | > 50
Cc1cc2cncn2c(C2CCCCN2C(=O)c2cccs2)n1 (configuration not stated) | > 50 µM (inactive) | > 50 | > 50
CC1CCCN(S(=O)(=O)c2ccc(C(=O)Nc3nc(-c4ccccn4)cs3)cc2)C1 (configuration not stated) | 0.25 µM | 5 | 0.16

SMILES | IC50 | IC50 [1] [µM] | IC50 [2] [µM]
N#Cc1cccc(CNc2ccc(-c3cnn(CC4CC4)c(=O)c3C#N)cc2)c1 | 1.3 µM | 6.3 | 0.25
Cc1ccc(NC(=O)c2ccc(Cl)c(NC(=O)c3ccc([N+](=O)[O-])cc3)c2)cc1 | > 50 µM (inactive) | > 50 | > 50
COc1ccc(NS(=O)(=O)c2cc(NC(=O)c3ccc([N+](=O)[O-])s3)ccc2OC)cc1 | 0.79 µM | 13 | 0.79
O=C(Nc1ccc(C(=O)N2CCCC2c2ccc3c(c2)OCCCO3)cc1)c1ccco1 (configuration not stated) | 6.3 µM | > 50 | 3.2
CC(C)(C)CC(=O)NCc1noc(COc2ccccc2)n1 | > 50 µM (inactive) | > 50 | > 50
Clc1ccc(CN2CCN(C3=NCCN3)CC2)cc1Cl | > 50 µM (inactive) | > 50 | > 50
CC1CN(Cc2ccc(C#N)cc2)CCN1c1ccc(NC(=O)c2ccccc2F)cc1 (configuration not stated) | 10 µM | > 50 | 5
COc1cccc(NS(=O)(=O)c2ccc3[nH]cc(C(=O)NCCC(C)C)c(=O)c3c2)c1 | > 50 µM (inactive) | > 50 | > 50
CCCCn1c(=O)c2c(N)onc2n(CCCC)c1=O | > 50 µM (inactive) | > 50 | 32
N#Cc1cc(N2CCCC2=O)ccc1Sc1ccccc1CO | > 50 µM (inactive) | > 50 | > 50
CC(=O)Nc1ccc(-c2ccnc(Nc3cccc(C#N)c3)n2)cc1 | 16 µM | 10 | 10
CNC(=O)C1Cc2ccccc2N1C(=O)Cc1ccc(F)cc1 (configuration not stated) | > 50 µM (inactive) | > 50 | > 50
O=C(COc1ncnc2cc([N+](=O)[O-])ccc12)NC(=O)NC1CCCCC1 | > 50 µM (inactive) | > 50 | > 50
Cc1cc(C)cc(NS(=O)(=O)c2cc(-c3cc(C)[nH]n3)ccc2C)c1 | 7.9 µM |  | 3.2
Nc1cc(-c2ccc3ncnc(N4CCOCC4)c3c2)cnc1N | 10 µM | > 50 | 1.3
Fc1ccc(OC2CC(NCc3cccc4cn[nH]c34)C2)cc1C(F)(F)F (configuration not stated) | 7.9 µM | 10 | 7.9
CC1=NN(C(=O)CCn2cnc([N+](=O)[O-])n2)C(O)(C(F)(F)F)C1 (configuration not stated) | > 50 µM (inactive) | > 50 | > 50
CNc1nc(C)nc(N2CCc3cc(C(=O)NCc4ccc(-c5ccn[nH]5)cc4Cl)ccc32)n1 | 0.32 µM | > 50 | 0.4
O=C(Nc1nccs1)c1ccccc1Cn1cc([N+](=O)[O-])cn1 | > 50 µM (inactive) | > 50 | > 50
CC(=O)NC1(c2ccccc2)CCN(CC(=O)Nc2ccccc2-c2ccccc2)CC1 | > 50 µM (inactive) | > 50 | 40
COc1ccc(C(C)N(C)c2ncc3c(N)nc(N)nc3n2)cc1F (configuration not stated) | 16 µM | > 50 | 13
O=C(c1cnn(-c2ccccc2)n1)N1CCCC(n2ccnc2)C1 (configuration not stated) | > 50 µM (inactive) | > 50 | 0.63
